Among the data in patent US9090583B2, “Benzopyrone estrogen receptor regulator” (BEIJING SHENOGEN PHARMA GROUP LTD., priority 2010, dated 2015) are IC50 values, retold here.

Read-outs that look alike come from different tables or passages of the source. Bounds are passed on as bounds.

The subject of one assay is MDA-MB-231 cells. Nature of the assay: CellTiter-Glo Luminescent Cell Viability Assay on ER-negative breast cancer MDA-MB-231 cells. The format is cell-based. Conditions: average ± standard deviation when tested more than 3 times, read-out: Inhibition of the viability of breast cancer cells, IC50. The protocol: A: In Vitro CellTiter-Glo® Luminescent Cell Viability Assay on ER-Negative Breast Cancer MDA-MB-231 Cells:
MDA-MB-231 cells were maintained at 37° C., under 5% CO2 atmosphere in DMEM containing 10% fetal calf serum. The cells were seeded on 96-well plate at a density of 6×10^3 cells per well. MDA-MB-231 cells were treated with a test compound dissolved in DMSO at the concentrations of zero, 0.3 μM, 0.5 μM, 1 μM, 2 μM, 3 μM, 5 μM, 10 μM, 20 μM, 30 μM, 50 μM and 100 μM for 72 hours. Treated cells were examined by CellTiter-Glo® Luminescent Cell Viability Assay Kit (Promega), and luminescence values were recorded with Envision.
On the technique in general: In ATP-based viability assays light output follows the ATP content of the culture.

The subject of another assay is MCF7 cells. Nature of the assay: CellTiter-Glo Luminescent Cell Viability Assay on ER-positive breast cancer MCF-7 cells. Format: cell-based, human. Conditions: average ± standard deviation when tested more than 3 times, read-out: Inhibition of the viability of breast cancer cells, IC50. The source says:
B: In Vitro CellTiter-Glo® Luminescent Cell Viability Assay on ER-Positive Breast Cancer MCF-7 Cells:
MCF7 cells are breast cancer cell lines that highly express ER-66, ER-46 and ER-36. (Relevance of breast cancer cell lines as models for breast tumours: an update. Marc Lacroix, Guy Leclercq, Breast Cancer Research and Treatment (2004) 83, 249-289; Wang et al., Proc. Natl. Acad. Sci. U.S.A. 103:9063-9068 (2006)). MCF7 cells were obtained from ATCC and maintained in Dulbecco's Modified Eagles Medium (DMEM) and 10% fetal calf serum at 37° C., under 5% CO2 atmosphere. The cells were seeded on 96-well plate at a density of 6×10^3 cells per well. MCF7 cells were treated with a test compound dissolved in DMSO at the concentrations of zero, 0.3 μM, 0.5 μM, 1 μM, 2 μM, 3 μM, 5 μM, 10 μM, 20 μM, 30 μM, 50 μM and 100 μM for 72 hours. Treated cells were examined by CellTiter-Glo® Luminescent Cell Viability Assay Kit (Promega), and luminescence values were recorded with Envision.

As to `COc1c(-c2ccsc2)oc2c(CC=C(C)C)c(O)c(CC=C(C)C)c(O)c2c1=O` [Compound 40, 2-(thiophen-3-yl)-5,7-dihydroxy-3-methoxy-6,8-di(3-methyl-2-buten-1-yl)-4H-benzopyran-4-one], the IC50 worked out at 24 µM in the assay on MDA-MB-231 cells (Homo sapiens, MDA-MB-231, 72 h) and 23.5 µM in the assay with MCF7 cells (Homo sapiens, MCF7, 72 h).

Consider `COc1c(-c2ccco2)oc2c(CC=C(C)C)c(O)c(CC=C(C)C)c(O)c2c1=O` [Compound 41, 2-(furan-2-yl)-5,7-dihydroxy-3-methoxy-6,8-di(3-methyl-2-buten-1-yl)-4H-benzopyran-4-one], for which the concentration for half-maximal inhibition (IC50) in the assay on MDA-MB-231 cells (Homo sapiens, MDA-MB-231, 72 h) was greater than 100 µM; in the assay with MCF7 cells (Homo sapiens, MCF7, 72 h) it was 22.2 µM.

With `COc1c(-c2ccoc2)oc2c(CC=C(C)C)c(O)c(CC=C(C)C)c(O)c2c1=O` [Compound 42, 2-(furan-3-yl)-5,7-dihydroxy-3-methoxy-6,8-di(3-methyl-2-buten-1-yl)-4H-benzopyran-4-one], the 50% inhibitory concentration (IC50) worked out at 28.7 µM with MDA-MB-231 cells (Homo sapiens, MDA-MB-231, 72 h) and 12.4 µM in the assay on MCF7 cells (Homo sapiens, MCF7, 72 h).

On to `COc1c(-c2cscn2)oc2c(CC=C(C)C)c(O)c(CC=C(C)C)c(O)c2c1=O` [Compound 43, 2-(thiazol-4-yl)-5,7-dihydroxy-3-methoxy-6,8-di(3-methyl-2-buten-1-yl)-4H-benzopyran-4-one], for which the half-inhibitory concentration (IC50) is greater than 100 µM in the assay with MDA-MB-231 cells (Homo sapiens, MDA-MB-231, 72 h) and 25.7 µM with MCF7 cells (Homo sapiens, MCF7, 72 h).

Consider `COc1c(-c2cocn2)oc2c(CC=C(C)C)c(O)c(CC=C(C)C)c(O)c2c1=O` [Compound 44, 2-(oxazol-4-yl)-5,7-dihydroxy-3-methoxy-6,8-di(3-methyl-2-buten-1-yl)-4H-benzopyran-4-one], for which the 50% inhibitory concentration (IC50) in the assay with MDA-MB-231 cells (Homo sapiens, MDA-MB-231, 72 h) was greater than 100 µM; in the assay on MCF7 cells (Homo sapiens, MCF7, 72 h), greater than 100 µM.

Consider `COc1c(-c2ccnn2C)oc2c(CC=C(C)C)c(O)c(CC=C(C)C)c(O)c2c1=O` [Compound 45, 2-(1-methyl-1H-pyrazol-5-yl)-5,7-dihydroxy-3-methoxy-6,8-di(3-methyl-2-buten-1-yl)-4H-benzopyran-4-one], for which the 50% inhibitory concentration (IC50) with MDA-MB-231 cells (72 hours) is greater than 100 µM; with MCF7 cells (Homo sapiens, MCF7, 72 h), 31.1 µM.

For the molecule `COc1c(-c2cnn(C)c2)oc2c(CC=C(C)C)c(O)c(CC=C(C)C)c(O)c2c1=O` [Compound 46, 2-(1-methyl-1H-pyrazol-4-yl)-5,7-dihydroxy-3-methoxy-6,8-di(3-methyl-2-buten-1-yl)-4H-benzopyran-4-one], the half-inhibitory concentration (IC50) with MDA-MB-231 cells (Homo sapiens, MDA-MB-231, 72 h) is greater than 100 µM; in the assay on MCF7 cells (Homo sapiens, MCF7, 72 h) it was greater than 100 µM.

On to `COc1c(-c2nccn2C)oc2c(CC=C(C)C)c(O)c(CC=C(C)C)c(O)c2c1=O` [Compound 47, 2-(1-methyl-1H-imidazol-2-yl)-5,7-dihydroxy-3-methoxy-6,8-di(3-methyl-2-buten-1-yl)-4H-benzopyran-4-one], for which the IC50 in the assay on MDA-MB-231 cells (Homo sapiens, MDA-MB-231, 72 h) was 43.5 µM; with MCF7 cells (Homo sapiens, MCF7, 72 h) it was greater than 100 µM.

Consider `COc1c(-c2ccnn2C)oc2c(CC=C(C)C)c(O)c(CC=C(C)C)c(O)c2c1=O` [Compound 48, 2-(1-methyl-1H-pyrazol-5-yl)-5,7-dihydroxy-3-methoxy-6,8-di(3-methyl-2-buten-1-yl)-4H-benzopyran-4-one], for which the IC50 was determined as 25 µM in the assay with MDA-MB-231 cells (72 hours) and 37.2 µM in the assay on MCF7 cells (72 hours).

For the molecule `COc1c(-c2cc3ccccc3o2)oc2c(CC=C(C)C)c(O)c(CC=C(C)C)c(O)c2c1=O` [Compound 50, 2-(benzofuran-2-yl)-5,7-dihydroxy-3-methoxy-6,8-di(3-methyl-2-buten-1-yl)-4H-benzopyran-4-one], the 50% inhibitory concentration (IC50) turned out to be 13.6 µM in the assay with MDA-MB-231 cells (Homo sapiens, MDA-MB-231, 72 h) and 20.4 µM with MCF7 cells (Homo sapiens, MCF7, 72 h).

Consider `COc1c(-c2ccnc(F)c2)oc2c(CC=C(C)C)c(O)c(CC=C(C)C)c(O)c2c1=O` [Compound 51, 2-(2-fluoropyridin-4-yl)-5,7-dihydroxy-3-methoxy-6,8-di(3-methyl-2-buten-1-yl)-4H-benzopyran-4-one], for which the half-inhibitory concentration (IC50) with MDA-MB-231 cells (Homo sapiens, MDA-MB-231, 72 h) was greater than 100 µM; in the assay on MCF7 cells (Homo sapiens, MCF7, 72 h), greater than 100 µM.

`COc1c(-c2ccc(Cl)nc2)oc2c(CC=C(C)C)c(O)c(CC=C(C)C)c(O)c2c1=O` [Compound 52, 2-(6-chloropyridin-3-yl)-5,7-dihydroxy-3-methoxy-6,8-di(3-methyl-2-buten-1-yl)-4H-benzopyran-4-one]: the IC50 in the assay on MDA-MB-231 cells (Homo sapiens, MDA-MB-231, 72 h) amounted to 8.34 ± 1.63 µM; in the assay with MCF7 cells (Homo sapiens, MCF7, 72 h), 7.04 ± 1.43 µM.

For `COc1c(-c2ccc(Cl)cn2)oc2c(CC=C(C)C)c(O)c(CC=C(C)C)c(O)c2c1=O` [Compound 53, 2-(5-chloropyridin-2-yl)-5,7-dihydroxy-3-methoxy-6,8-di(3-3-methyl-2-buten-1-yl)-4H-benzopyran-4-one], the results for the IC50 in the assay with MDA-MB-231 cells (72 hours) and in the assay on MCF7 cells (72 hours) were 17 ± 4.97 µM and 19.5 ± 1.02 µM, respectively.

For the molecule `COc1c(-c2ccc(F)nc2)oc2c(CC=C(C)C)c(O)c(CC=C(C)C)c(O)c2c1=O` [Compound 54, 2-(6-fluoropyridin-3-yl)-5,7-dihydroxy-3-methoxy-6,8-di(3-3-methyl-2-buten-1-yl)-4H-benzopyran-4-one], the 50% inhibitory concentration (IC50) in the assay on MDA-MB-231 cells (72 hours) was 10.3 ± 0.38 µM; in the assay with MCF7 cells (72 hours) it was 7.06 ± 3.16 µM.

Take `COc1c(-c2ccnc(Cl)c2)oc2c(CC=C(C)C)c(O)c(CC=C(C)C)c(O)c2c1=O` [Compound 55, 2-(2-chloropyridin-4-yl)-5,7-dihydroxy-3-methoxy-6,8-di(3-methyl-2-buten-1-yl)-4H-benzopyran-4-one]: the IC50 in the assay on MDA-MB-231 cells (Homo sapiens, MDA-MB-231, 72 h) worked out at 5.51 ± 0.02 µM; with MCF7 cells (Homo sapiens, MCF7, 72 h), 4.17 ± 2.45 µM.

With `COc1c(-c2ccc(C(=O)O)cc2)oc2c(CC=C(C)C)c(O)c(CC=C(C)C)c(O)c2c1=O` [Compound 56, 4-[5,7-dihydroxy-3-methoxy-6,8-di(3-methyl-2-butenyl)-4-oxo-4H-benzopyran-2-yl]benzoic acid], the IC50 was 5.96 µM in the assay with MDA-MB-231 cells (Homo sapiens, MDA-MB-231, 72 h) and 29.2 µM with MCF7 cells (Homo sapiens, MCF7, 72 h).

On to `COc1c(-c2ccc(OC(F)(F)F)cc2)oc2c(CC=C(C)C)c(O)c(CC=C(C)C)c(O)c2c1=O` [Compound 58, 2-(4-trifluoromethoxyphenyl)-5,7-dihydroxy-3-methoxy-6,8-di(3-methyl-2-buten-1-yl)-4H-benzopyran-4-one], for which the IC50 in the assay with MDA-MB-231 cells (Homo sapiens, MDA-MB-231, 72 h) was 3.63 µM; with MCF7 cells (Homo sapiens, MCF7, 72 h), greater than 100 µM.

Regarding `COc1c(-c2ccc(N(C)C)cc2)oc2c(CC=C(C)C)c(O)c(CC=C(C)C)c(O)c2c1=O` [Compound 59, 2-(4-dimethylaminophenyl)-5,7-dihydroxy-3-methoxy-6,8-di(3-methyl-2-buten-1-yl)-4H-benzopyran-4-one], the IC50 is greater than 100 µM in the assay on MDA-MB-231 cells (Homo sapiens, MDA-MB-231, 72 h) and 5.12 µM with MCF7 cells (Homo sapiens, MCF7, 72 h).

As to `COc1c(-c2ccc(S(C)(=O)=O)cc2)oc2c(CC=C(C)C)c(O)c(CC=C(C)C)c(O)c2c1=O` [Compound 64, 2-(4-methanesulfonylphenyl)5,7-dihydroxy-3-methoxy-6,8-di(3-methyl-2-buten-1-yl)-4H-benzopyran-4-one], the half-maximal inhibitory concentration (IC50) in the assay with MDA-MB-231 cells (Homo sapiens, MDA-MB-231, 72 h) was found to be 2.45 µM; in the assay with MCF7 cells (Homo sapiens, MCF7, 72 h), 40.6 µM.

As to `COc1c(-c2ccc(C(C)=O)cc2)oc2c(CC=C(C)C)c(O)c(CC=C(C)C)c(O)c2c1=O` [Compound 65, 2-(4-acetylphenyl)-5,7-dihydroxy-3-methoxy-6,8-di(3-methyl-2-buten-1-yl)-4H-benzopyran-4-one], the IC50 in the assay on MDA-MB-231 cells (Homo sapiens, MDA-MB-231, 72 h) is greater than 100 µM; in the assay with MCF7 cells (Homo sapiens, MCF7, 72 h), 10.2 µM.

On to `COc1c(-c2ccc(C(C)O)cc2)oc2c(CC=C(C)C)c(O)c(CC=C(C)C)c(O)c2c1=O` (stereo not shown) [Compound 67], for which the half-maximal inhibitory concentration (IC50) with MDA-MB-231 cells (72 hours) is 3.27 µM; with MCF7 cells (72 hours) it was 4.66 µM.

Consider `COc1c(-c2cncs2)oc2c(CC=C(C)C)c(O)c(CC=C(C)C)c(O)c2c1=O` [Compound 68, 2-(thiazol-5-yl)-5,7-dihydroxy-3-methoxy-6,8-di(3-methyl-2-buten-1-yl)-4H-benzopyran-4-one], for which the IC50 came to 23.8 µM in the assay on MDA-MB-231 cells (72 hours) and 8.89 µM in the assay with MCF7 cells (72 hours).

As for `COc1c(CC=C(C)C)c(O)c2c(=O)c(OC)c(-c3ccc(F)c(F)c3)oc2c1CC=C(C)C` [Compound 81A, 2-(3,4-difluorophenyl)-5-hydroxy-3,7-dimethoxy-6,8-di(3-methyl-2-buten-1-yl)-4H-benzopyran-4-one], the IC50 in the assay with MDA-MB-231 cells (Homo sapiens, MDA-MB-231, 72 h) is greater than 100 µM; in the assay with MCF7 cells (Homo sapiens, MCF7, 72 h), greater than 100 µM.

On to `COc1c(CC=C(C)C)cc2c(=O)c(OC)c(-c3ccc(F)c(F)c3)oc2c1CC=C(C)C` [Compound 81B, 2-(3,4-difluorophenyl)-3,7-dimethoxy-6,8-di(3-methyl-2-buten-1-yl)-4H-benzopyran-4-one], for which the IC50 in the assay on MDA-MB-231 cells (Homo sapiens, MDA-MB-231, 72 h) was greater than 100 µM; in the assay with MCF7 cells (Homo sapiens, MCF7, 72 h), greater than 100 µM.

Regarding `COc1c(CC=C(C)C)c(O)c2c(=O)c(OC)c(-c3ccc(Cl)c(F)c3)oc2c1CC=C(C)C` [Compound 82A, 2-(3-fluoro-4-chlorophenyl)-5-hydroxy-3,7-dimethoxy-6,8-di(3-methyl-2-buten-1-yl)-4H-benzopyran-4-one], the IC50 in the assay with MDA-MB-231 cells (Homo sapiens, MDA-MB-231, 72 h) was greater than 100 µM; in the assay with MCF7 cells (Homo sapiens, MCF7, 72 h), greater than 100 µM.

Take `COc1c(CC=C(C)C)c(OC)c2c(=O)c(OC)c(-c3ccc(Cl)c(F)c3)oc2c1CC=C(C)C` [Compound 82B, 2-(3-fluoro-4-chlorophenyl)-3,5,7-trimethoxy-6,8-di(3-methyl-2-buten-1-yl)-4H-benzopyran-4-one]: the 50% inhibitory concentration (IC50) with MDA-MB-231 cells (Homo sapiens, MDA-MB-231, 72 h) was 26.3 µM; in the assay on MCF7 cells (Homo sapiens, MCF7, 72 h), greater than 100 µM.

The term IC50 denotes the midpoint of a concentration-inhibition curve.
